The values that follow come from paper PMC6798786 (Brain Communications, 2019).

In data set [1] the test system is scn1lab mutant zebrafish larvae. As to the kind of experiment: toxicity check of larvae after 90 min drug exposure (heartbeat, escape response). Format: in vivo, Danio rerio. The conditions noted are these: 100 µM or 250 µM; 90 min exposure. The protocol:
For locomotion studies, zebrafish larvae (5 days post-fertilization) were placed into a single well of a clear flat-bottomed 96-well microplate containing embryo media. Sex determination is not possible at this stage of development. All drug screening experiments were conducted in an unbiased manner by investigators blinded to the test compounds and all files coded for post hoc analysis. The 96-well plate containing larvae was then placed inside a DanioVision box where they were allowed to acclimate (20 min; room temperature). EthoVision XT software (DanioVision, Noldus Information Technology) was used to obtain locomotion plots (10 min in duration). […] All locomotion plots were analysed for distance travelled (in millimetres) and mean velocity (in millimetres per second). After 90 min of drug exposure larvae were examined for toxic side-effects. Compounds that decreased or stopped the larva heartbeat, or reduced or eliminated the escape response when touched, were considered toxic.

Data set [2] concerns the target human 5-HT2AR (Homo sapiens, UniProt P28223). As to the kind of experiment: radioligand binding (NIMH PDSP). The protocol:
(§1) All in vitro binding assay and Ki data studies were performed by the US National Institute of Mental Health Psychoactive Drug Screening Program (NIMH PDSP). For these studies, drugs were screened against recombinant, stably expressed human 5-HT2AR, 5-HT2BR, 5-HT2CR and H1, as described at https://pdspdb.unc.edu/pdspWeb/ ([Besnard et al., 2012]).

In data set [3] the target is human H1 (Homo sapiens, UniProt P35367). As to the kind of experiment: radioligand binding (NIMH PDSP). The following applies: read-out: Ki H1. The protocol: as §1
The target of data set [4] is human 5-HT2BR (Homo sapiens, UniProt P41595). As to the kind of experiment: radioligand binding (NIMH PDSP). The conditions noted are these: read-out: Ki 5-HT2BR. The protocol: as §1
For data set [5], the target named is T1, human 5-HT2CR (Homo sapiens, UniProt P28335).
T1 sequence (P28335 33-458): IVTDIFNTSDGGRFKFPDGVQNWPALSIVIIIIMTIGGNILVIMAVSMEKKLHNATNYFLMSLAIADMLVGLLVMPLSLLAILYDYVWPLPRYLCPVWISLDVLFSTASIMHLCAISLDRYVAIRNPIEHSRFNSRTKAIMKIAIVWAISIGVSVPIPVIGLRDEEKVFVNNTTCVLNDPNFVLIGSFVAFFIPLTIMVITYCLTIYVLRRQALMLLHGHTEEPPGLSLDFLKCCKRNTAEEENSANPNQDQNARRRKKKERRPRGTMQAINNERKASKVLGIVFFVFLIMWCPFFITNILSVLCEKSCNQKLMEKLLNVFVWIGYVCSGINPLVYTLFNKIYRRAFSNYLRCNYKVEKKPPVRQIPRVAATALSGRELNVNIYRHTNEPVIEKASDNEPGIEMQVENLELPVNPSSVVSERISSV
Put plainly: radioligand binding (NIMH PDSP). The protocol: as §1

In data set [6] the test system is scn1lab mutant zebrafish. As to the kind of experiment: locomotion (mean swim velocity) seizure-like behaviour assay in scn1lab mutant zebrafish larvae. Format: in vivo, Danio rerio. The conditions noted are these: for effect on seizure-like swim behaviour, initial library screen: 100 µM or 250 µM, UCSF-synthesized compound; for effect on seizure-like swim behaviour, retest of independently synthesized compound: 10, 50, 100 and 250 µM; for effect on seizure-like swim behaviour, retest of independently synthesized compound / effect on seizure-like swim behaviour, commercially available compounds: 30 and 90 min exposure; for effect on seizure-like swim behaviour, commercially available compounds: three concentrations; for change in vivo at 100 µM / change in vivo at 250 µM: Danio rerio. The protocol:
For locomotion studies, zebrafish larvae (5 days post-fertilization) were placed into a single well of a clear flat-bottomed 96-well microplate containing embryo media. Sex determination is not possible at this stage of development. All drug screening experiments were conducted in an unbiased manner by investigators blinded to the test compounds and all files coded for post hoc analysis. The 96-well plate containing larvae was then placed inside a DanioVision box where they were allowed to acclimate (20 min; room temperature). EthoVision XT software (DanioVision, Noldus Information Technology) was used to obtain locomotion plots (10 min in duration). Seizure scoring was performed, as described ([Baraban et al., 2005]). All locomotion plots were analysed for distance travelled (in millimetres) and mean velocity (in millimetres per second). After 90 min of drug exposure larvae were examined for toxic side-effects. Compounds that decreased or stopped the larva heartbeat, or reduced or eliminated the escape response when touched, were considered toxic.
For behaviour analysis, the threshold for a change in mean swim velocity ≥40% is considered significant (>1.5× SD of 250 control treated scn1lab). Unless otherwise indicated, all data in this manuscript are presented as the mean ± standard error of the mean. […] Statistically significant differences are indicated with asterisks (*P < 0.05; **P < 0.01; ***P < 0.001). […]

For data set [7], the target named is T1, human 5-HT2CR. The conditions noted are these: commercially available compounds known to bind 5-HT2BR; ref Roth et al., 2000; read-out: 5-HT2CR (nM), Table S3; cited from earlier work.
[8] abbreviates: recombinant, stably expressed human receptor, clemizole analogues.
The mark [9] stands for this setting: read-out: % change in velocity, individual larva 1 (heat map).
Where [10] appears, read: read-out: % change in velocity, individual larva 2 (heat map).
[11] abbreviates: read-out: % change in velocity, individual larva 3 (heat map).
[12] abbreviates: read-out: % change in velocity, individual larva 4 (heat map).
Where [13] appears, read: read-out: % change in velocity, individual larva 5 (heat map).
The mark [14] stands for this setting: read-out: % change in velocity, individual larva 6 (heat map).
Setting [15] is: read-out: mean velocity change from six fish, Trial 1.
Where [16] appears, read: read-out: mean velocity change from six fish, Trial 2.

Counter-ions that a name gives are not always drawn. Like-named read-outs stand apart in the source and are kept apart here.

human 5-HT2AR, sequence (P28223 whole entry): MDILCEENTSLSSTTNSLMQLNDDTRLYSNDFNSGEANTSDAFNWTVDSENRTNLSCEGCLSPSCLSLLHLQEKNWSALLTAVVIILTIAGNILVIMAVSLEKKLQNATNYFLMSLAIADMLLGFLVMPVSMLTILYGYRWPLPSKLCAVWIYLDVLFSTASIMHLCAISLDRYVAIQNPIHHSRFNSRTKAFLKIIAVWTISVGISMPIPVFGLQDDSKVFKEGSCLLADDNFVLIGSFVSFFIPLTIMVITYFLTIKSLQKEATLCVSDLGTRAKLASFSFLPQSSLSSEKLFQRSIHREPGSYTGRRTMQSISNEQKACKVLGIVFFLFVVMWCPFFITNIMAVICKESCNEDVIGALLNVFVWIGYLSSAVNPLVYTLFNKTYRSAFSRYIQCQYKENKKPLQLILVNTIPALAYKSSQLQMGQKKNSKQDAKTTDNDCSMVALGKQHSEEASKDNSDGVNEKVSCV
human H1, sequence (P35367 whole entry): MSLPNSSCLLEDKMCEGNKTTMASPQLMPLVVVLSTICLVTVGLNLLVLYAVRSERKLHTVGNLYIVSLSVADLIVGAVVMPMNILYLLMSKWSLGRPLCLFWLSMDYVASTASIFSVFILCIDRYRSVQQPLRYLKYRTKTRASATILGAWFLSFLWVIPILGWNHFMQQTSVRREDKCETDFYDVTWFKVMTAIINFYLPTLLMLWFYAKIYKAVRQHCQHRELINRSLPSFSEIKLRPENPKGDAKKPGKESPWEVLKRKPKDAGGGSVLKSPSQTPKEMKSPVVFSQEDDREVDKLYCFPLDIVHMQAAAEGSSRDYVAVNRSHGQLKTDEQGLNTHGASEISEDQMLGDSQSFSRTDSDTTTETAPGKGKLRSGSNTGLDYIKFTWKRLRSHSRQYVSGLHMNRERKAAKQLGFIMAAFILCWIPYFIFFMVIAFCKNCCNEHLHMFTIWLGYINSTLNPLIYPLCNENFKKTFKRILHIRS
human 5-HT2BR, sequence (P41595 whole entry): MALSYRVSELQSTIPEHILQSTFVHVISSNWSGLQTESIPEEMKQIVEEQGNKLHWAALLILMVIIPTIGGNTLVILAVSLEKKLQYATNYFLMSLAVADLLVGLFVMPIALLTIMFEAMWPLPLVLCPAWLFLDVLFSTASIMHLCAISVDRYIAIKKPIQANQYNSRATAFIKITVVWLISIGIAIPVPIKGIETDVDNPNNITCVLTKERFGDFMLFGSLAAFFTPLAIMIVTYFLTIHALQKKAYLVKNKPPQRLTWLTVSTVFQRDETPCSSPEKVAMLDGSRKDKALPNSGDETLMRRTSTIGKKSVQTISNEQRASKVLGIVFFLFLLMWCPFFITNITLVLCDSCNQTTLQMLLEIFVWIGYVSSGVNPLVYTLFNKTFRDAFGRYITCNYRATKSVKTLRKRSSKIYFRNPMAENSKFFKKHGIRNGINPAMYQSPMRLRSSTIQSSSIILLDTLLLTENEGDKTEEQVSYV

As to `FC1(F)CCN(Cc2nc3ccccc3n2Cc2ccc(Cl)cc2)CC1` [Compound 27], the “toxicity in initial analogue screening” value in data set [1] was “toxic”. Moreover, the Ki in data set [2] (setting [8]) was above 10000 nM; in data set [3] (setting [8]), 442 nM; in data set [4] (setting [8]), above 10000 nM; in data set [5] (setting [8]), 7150 nM.

As to `Fc1ccc(Cn2c(CN3CCCC3)nc3ccccc32)cc1` [Compound 7], the Ki was 15 nM in data set [2] (setting [8]), 1 nM in data set [3] (setting [8]), 46 nM in data set [4] (setting [8]) and 345 nM in data set [5] (setting [8]).

For `CCCn1c(CN2CCCC2)nc2ccccc21.O=CO` [Compound 5], the “effect on seizure-like swim behaviour, initial library screen” value in data set [6] is on record as “no significant effect on swim behaviour”. In addition, the “effect on seizure-like swim behaviour, retest of independently synthesized compound” value in data set [6] was “no significant effect on the swim behaviour”. Moreover, the Ki in data set [2] (setting [8]) is above 10000 nM; in data set [3] (setting [8]) it was 362 nM; in data set [4] (setting [8]) it was 219 nM; in data set [5] (setting [8]), above 10000 nM.

As for `Cl.Clc1cccc(N2CCNCC2)c1` [m-CPP, reference compound], the “effect on seizure-like swim behaviour, commercially available compounds” value (“effect … commercially available compounds” for short) in data set [6] was “biphasic response”.

Consider `CC(C)C[C@H]1C(=O)N2CCC[C@H]2[C@]2(O)O[C@](NC(=O)[C@@H]3C=C4c5cccc6[nH]c(Br)c(c56)C[C@H]4N(C)C3)(C(C)C)C(=O)N12` [bromocriptine, Bromocriptine mesylate, reference compound], for which the “effect on seizure-like swim behaviour at 10 µM” value in data set [6] (10 µM) is recorded as “significantly reduced seizure-like swim behaviour”.

`Clc1ccc(Cn2c(CN3CCSC3)nc3ccccc32)cc1` [Compound 28]: the Ki in data set [2] (setting [8]) is above 10000 nM; in data set [3] (setting [8]), 44 nM; in data set [4] (setting [8]), 464 nM; in data set [5] (setting [8]), 1080 nM.

For `Clc1ccc(Cn2c(CC3CCCC3)nc3ccccc32)cc1` [Compound 1], the “toxicity in initial analogue screening” value in data set [1] is “toxic”. Moreover, the change in vivo at 100 µM in data set [6] (setting [9]), in data set [6] (setting [10]), in data set [6] (setting [11]), in data set [6] (setting [12]), in data set [6] (setting [13]) and in data set [6] (setting [14]) was -100% each time. Besides, the change in vivo at 100 µM in data set [6] (setting [15]) and in data set [6] (setting [16]) was -100% in each case. For the same molecule, the change in vivo at 250 µM in data set [6] (setting [9]) is -100%; in data set [6] (setting [10]), -60%; in data set [6] (setting [11]), -100%; in data set [6] (setting [12]) it was -100%; in data set [6] (setting [13]), -100%; in data set [6] (setting [14]), -100%. For the same molecule, the change in vivo at 250 µM in data set [6] (setting [15]) was -96.2%. The figures for the Ki in data set [4] and in data set [5] were 501 nM and 2730 nM, respectively.

`Clc1ccc(Cn2c(CN3CCOCC3)nc3ccccc32)cc1` [Compound 23]: the “toxicity in initial analogue screening” value in data set [1] was “toxic”. Besides, the Ki in data set [2] (setting [8]) was above 10000 nM; in data set [3] (setting [8]) it was 34 nM; in data set [4] (setting [8]), 515 nM; in data set [5] (setting [8]), above 10000 nM.

Regarding `Clc1ccc(Cn2c(CN3CCCC3)cc3ccccc32)cc1` [Compound 11], the change in vivo at 100 µM stood at 39.3% in data set [6] (setting [9]); 403% in data set [6] (setting [10]); 91.2% in data set [6] (setting [11]); 120% in data set [6] (setting [12]); 149% in data set [6] (setting [13]); 66.8% in data set [6] (setting [14]). Moreover, the change in vivo at 100 µM in data set [6] (setting [15]) and in data set [6] (setting [16]) was 124% in each case. Besides, the change in vivo at 250 µM in data set [6] (setting [9]), in data set [6] (setting [10]), in data set [6] (setting [11]), in data set [6] (setting [12]), in data set [6] (setting [13]) and in data set [6] (setting [14]) was -100% each time. In data set [6] (setting [15]), the change in vivo at 250 µM was -100%. Further, the Ki was 631 nM in data set [2], 6.4 nM in data set [3], 134 nM in data set [4] and 248 nM in data set [5].

Consider `Nc1ccc(Cn2c(CN3CCCC3)nc3ccccc32)cc1` [Compound 14], for which the “effect on seizure-like swim behaviour, initial library screen” value in data set [6] was “no significant effect on swim behaviour”. Besides, the “effect on seizure-like swim behaviour, retest of independently synthesized compound” value in data set [6] is recorded as “no significant effect on the swim behaviour”. For the same molecule, the Ki in data set [2] (setting [8]) was above 10000 nM; in data set [3] (setting [8]), 27 nM; in data set [4] (setting [8]), 606 nM; in data set [5] (setting [8]), above 10000 nM.

As to `c1ccc(Cn2c(CN3CCCC3)nc3ccccc32)cc1` [Compound 3], the Ki in data set [2] (setting [8]) came out at 327 nM; in data set [3] (setting [8]), 4.8 nM; in data set [4] (setting [8]), 83 nM; in data set [5] (setting [8]), 292 nM.

For the molecule `CN1CCN(Cc2nc3ccccc3n2Cc2ccc(Cl)cc2)CC1` [Compound 26], the Ki in data set [2] (setting [8]) amounted to 316 nM; in data set [3] (setting [8]), 1.2 nM; in data set [4] (setting [8]) it was 20 nM; in data set [5] (setting [8]), 313 nM.

As to `CC(N)Cc1c[nH]c2ccc(OCc3cccs3)cc12` (centres unmarked) [reference compound], the “effect … commercially available compounds” value in data set [6] was “failed to reach our significance threshold”. Moreover, the Ki in data set [7] is 115 nM.

Take `CN1CCc2cccc3c2[C@H]1Cc1ccc(O)c(O)c1-3` [apomorphine, (−)-Apomorphine hydrochloride, reference compound]: in data set [6], the “effect … commercially available compounds” value was “significantly increased mean swim velocity”.

In the case of `Clc1ccc(Cn2c(CN3CCCCC3)nc3ccccc32)cc1` [Compound 22], the “toxicity in initial analogue screening” value in data set [1] is given as “toxic”. The Ki in data set [2] (setting [8]) amounted to 623 nM; in data set [3] (setting [8]), 8.5 nM; in data set [4] (setting [8]) it was 306 nM; in data set [5] (setting [8]), 4580 nM.

As for `O=C(c1nc2ccccc2n1Cc1ccc(Cl)cc1)N1CCCC1` [Compound 2], the “toxicity in initial analogue screening” value in data set [1] was “toxic”. Besides, the change in vivo at 100 µM in data set [6] (setting [9]) is -68.2%; in data set [6] (setting [10]), -100%; in data set [6] (setting [11]) it was -100%; in data set [6] (setting [12]) it was -100%; in data set [6] (setting [13]), -100%; in data set [6] (setting [14]), -100%. Also, the change in vivo at 100 µM in data set [6] (setting [15]) and in data set [6] (setting [16]) was -97.2% throughout. In addition, the change in vivo at 250 µM in data set [6] (setting [9]), in data set [6] (setting [10]), in data set [6] (setting [11]), in data set [6] (setting [12]), in data set [6] (setting [13]) and in data set [6] (setting [14]) was -100% throughout. The change in vivo at 250 µM in data set [6] (setting [15]) was -100%.
